Results taken from ChEMBL document CHEMBL5257148, “Novel Tricyclic Compounds as KRAS Inhibitors for Treating Cancer” (ACS Med Chem Lett, 2023).
pIC50: −log10 of the molar value.

Tests used:
[1] = biological target: T1, GTPase KRas (Homo sapiens, UniProt P01116, G12C); test: Inhibition of KRAS G12C mutant in human MIA PaCa-2 cells assessed as reduction in pERK level incubated for 4 hrs by HTRF assay; format: cell-based
[2] = biological target: T1, GTPase KRas; test: Inhibition of KRAS G12C mutant in human MIA PaCa-2 cells assessed as reduction in whole blood pERK level incubated for 4 hrs by HTRF assay; format: cell-based
[3] = biological target: T1, GTPase KRas; test: Inhibition of KRAS G12C mutant (unknown origin) assessed as inhibition of SOS1 mediated nucleotide exchange incubated for 2 hrs in presence of GppNHp by fluorescence based analysis

T1 sequence (P01116 whole entry G12C): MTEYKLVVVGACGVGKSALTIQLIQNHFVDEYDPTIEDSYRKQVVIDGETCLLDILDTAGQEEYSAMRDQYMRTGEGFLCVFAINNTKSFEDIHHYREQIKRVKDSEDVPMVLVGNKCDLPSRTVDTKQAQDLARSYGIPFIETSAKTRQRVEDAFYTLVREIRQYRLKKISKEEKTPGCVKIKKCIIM

pIC50 [1]	pIC50 [2]	pIC50 [3]	SMILES
≥ 7.30	≥ 7.30	≥ 7.30	Cc1cc2c(nc(O[C@@H](C)[C@@H]3CCCN3C)c3nnn([C@H]4CCN(C(=O)/C=C/CF)[C@H](CC#N)C4)c32)c(F)c1-c1ccc2cnn(C)c2c1
≥ 7.30	≥ 7.30	≥ 7.30	COC/C=C/C(=O)N1CC[C@H](n2nnc3c(O[C@@H](C)[C@@H]4CCCN4C)nc4c(F)c(-c5ncc(F)c6ccccc56)c(C)cc4c32)C[C@H]1CC#N
≥ 7.30	≥ 7.30	≥ 7.30	COC/C=C/C(=O)N1CC[C@H](n2nnc3c(O[C@@H](C)[C@@H]4CCCN4C)nc4c(F)c(-c5ccc(F)cc5)c(C)cc4c32)C[C@H]1CC#N

The next lines start with the compound.

SMILES	pIC50 [1]	pIC50 [2]	pIC50 [3]
COC/C=C/C(=O)N1CC[C@H](n2nnc3c(O[C@@H](C)[C@@H]4CCCN4C)nc4c(F)c(-c5nn(C)c6ccccc56)c(C)cc4c32)C[C@H]1CC#N	≥ 7.30	≥ 7.30	≥ 7.30
C=C(F)C(=O)N1CC[C@H](n2nnc3c(O[C@@H](C)[C@@H]4CCCN4C)nc4c(F)c(-c5ncc(F)c6ccccc56)c(C)cc4c32)C[C@H]1CC#N	≥ 7.30	≥ 7.30	≥ 7.30
Cc1cccc(-c2c(C)cc3c(nc(N4CC(C)(N(C)C)C4)c4nnn([C@H]5CCN(C(=O)/C=C/CF)[C@H](CC#N)C5)c43)c2F)c1Cl	≥ 7.30	≥ 7.30	≥ 7.30
